Values of other authors, collected in US10596205B2, “Topical medicament for skin and mucosal injuries” (REV PHARMA Corp., priority 2018, dated 2020).

Assays:
[1] = system: S. Mutans biofilm; conditions: for Biofilm biomass / Acidogenicity of the biofilm (pH drops): 10% sucrose then free fatty acid; for Acidogenicity of the biofilm (pH drops): compared with biofilms exposed to only 10% sucrose; for Enamel demineralization induced by sucrose: biofilms treated with the fatty acids
[2] = system: biofilm; conditions: animals, diet rich in the fatty acids
[3] = system: Gram-positive microorganisms; conditions: in vitro study

Row | SMILES | Biofilm biomass [1] | Acidogenicity of the biofilm (pH drops) [1] | Enamel demineralization induced by sucrose [1] | Quantity of bacteria in biofilm [2] | Bacteriostatic effect [3]
1 | CCCCC/C=C\C/C=C\CCCCCCCC(=O)O [linoleic, linoleic acid] | decline in biomass | lower pH drops | significantly lower reduction | lower quantity of bacteria | 
2 | CCCCCCCC/C=C\CCCCCCCC(=O)O [oleic, oleic acid] | decline in biomass | lower pH drops | significantly lower reduction |  | 
3 | CCCCCCCCCCCC(=O)O [Lauric acid] |  |  |  | lower quantity of bacteria | highly bacteriostatic
